Test system: PC-3 PIP/flu tumor-bearing mice
Assay: Biodistribution studies in PC-3 PIP/flu tumor-bearing mice
Conditions: for Tumor-to-blood / Tumor-to-kidney / Tumor-to-liver: PC-3 PIP tumor

Work on `Cc1ccc(CCCC(=O)NCCCCC(NC(=O)CN2CCN(CC(=O)O)CCN(CC(=O)O)CCN(CC(=O)O)CC2)C(=O)NCC2CCC(C(=O)NC(Cc3ccc4ccccc4c3)C(=O)NCCCCC(NC(=O)NC(CCC(=O)O)C(=O)O)C(=O)O)CC2)cc1` (stereo not drawn) [44Sc-PSMA-ALB-06, metal not drawn] yielded a Tumor-to-blood (1 h p.i.) of 0.94 ± 0.11, a Tumor-to-kidney (1 h p.i.) of 0.77 ± 0.12 and a Tumor-to-liver (1 h p.i.) of 4.28 ± 0.52. It also gave a Blood (4 h p.i.) of 18.4 ± 1.00 % IA/g, a Bone (4 h p.i.) of 2.50 ± 0.35 % IA/g and a Heart (4 h p.i.) of 6.48 ± 0.50 % IA/g. It also gave an Intestines (4 h p.i.) of 2.50 ± 0.13 % IA/g, a Kidneys (4 h p.i.) of 28.8 ± 2.46 % IA/g and a Muscle (4 h p.i.) of 2.24 ± 0.10 % IA/g. For the same molecule, the “PC-3 PIP Tumor” value (4 h p.i.) was 61.7 ± 7.32 % IA/g, the “PC-3 flu Tumor” value (4 h p.i.) was 4.37 ± 0.43 % IA/g and the Salivary glands (4 h p.i.) was 4.55 ± 0.41 % IA/g. The Spleen (4 h p.i.) was 4.10 ± 0.54 % IA/g, the Tumor-to-blood (4 h p.i.) was 3.35 ± 0.20 and the Tumor-to-kidney (4 h p.i.) was 2.14 ± 0.15. For the same molecule, the Tumor-to-liver (4 h p.i.) was 17.93 ± 3.32, the Blood (6 h p.i.) was 15.6 ± 0.75 % IA/g and the Bone (6 h p.i.) was 2.54 ± 0.27 % IA/g. It also gave an Intestines (6 h p.i.) of 2.07 ± 0.34 % IA/g, a Kidneys (6 h p.i.) of 21.7 ± 0.42 % IA/g and a Liver (6 h p.i.) of 3.67 ± 0.68 % IA/g. For the same molecule, the Lung (6 h p.i.) was 9.44 ± 0.86 % IA/g, the “PC-3 PIP Tumor” value (6 h p.i.) was 72.9 ± 11.1 % IA/g and the “PC-3 flu Tumor” value (6 h p.i.) was 3.87 ± 0.45 % IA/g. It also gave a Salivary gland (6 h p.i.) of 4.03 ± 0.22 % IA/g, a Spleen (6 h p.i.) of 3.67 ± 0.37 % IA/g and a Tumor-to-blood (6 h p.i.) of 4.69 ± 0.67. It also gave a Tumor-to-kidney (6 h p.i.) of 3.35 ± 0.42 and a Tumor-to-liver (6 h p.i.) of 20.2 ± 3.43.
Work on `O=C(O)CCC(NC(=O)NC(CCCCNC(=O)C(Cc1ccc2ccccc2c1)NC(=O)C1CCC(n2cc(CC(NC(=O)CN3CCN(CC(=O)O)CCN(CC(=O)O)CCN(CC(=O)O)CC3)C(=O)NC(CCCCNC(=O)CCCc3ccc(I)cc3)C(=O)O)nn2)CC1)C(=O)O)C(=O)O` (stereo not drawn) [^177Lu-PSMA-ALB-01, metal not drawn] yielded a Tumor-to-blood (1 h p.i.) of 0.30 ± 0.06, a Tumor-to-kidney (1 h p.i.) of 0.46 ± 0.04 and a Tumor-to-liver (1 h p.i.) of 1.56 ± 0.30. For the same molecule, the Blood (4 h p.i.) was 25.6 ± 1.53 % IA/g, the Bone (4 h p.i.) was 3.01 ± 0.09 % IA/g and the Heart (4 h p.i.) was 8.71 ± 0.50 % IA/g. The Intestines (4 h p.i.) was 4.17 ± 0.70 % IA/g, the Kidneys (4 h p.i.) was 24.6 ± 0.38 % IA/g and the Liver (4 h p.i.) was 5.92 ± 0.07 % IA/g. For the same molecule, the Lung (4 h p.i.) was 14.1 ± 0.99 % IA/g, the Muscle (4 h p.i.) was 2.06 ± 0.80 % IA/g and the “PC-3 PIP Tumor” value (4 h p.i.) was 20.4 ± 0.39 % IA/g. For the same molecule, the “PC-3 flu Tumor” value (4 h p.i.) was 5.03 ± 1.61 % IA/g, the Salivary glands (4 h p.i.) was 5.20 ± 0.73 % IA/g and the Spleen (4 h p.i.) was 5.34 ± 0.90 % IA/g. The Stomach (4 h p.i.) was 3.30 ± 0.05 % IA/g, the Tumor-to-blood (4 h p.i.) was 0.80 ± 0.03 and the Tumor-to-kidney (4 h p.i.) was 0.83 ± 0.03. For the same molecule, the Tumor-to-liver (4 h p.i.) was 3.45 ± 0.03, the Blood (8 h p.i.) was 21.0 ± 2.86 % IA/g and the Bone (8 h p.i.) was 2.54 ± 0.26 % IA/g. The Heart (8 h p.i.) was 7.16 ± 1.23 % IA/g, the Intestines (8 h p.i.) was 2.44 ± 0.17 % IA/g and the Kidneys (8 h p.i.) was 22.6 ± 2.38 % IA/g. The Liver (8 h p.i.) was 5.31 ± 1.23 % IA/g, the Lung (8 h p.i.) was 11.6 ± 0.83 % IA/g and the Muscle (8 h p.i.) was 1.63 ± 0.27 % IA/g. The “PC-3 PIP Tumor” value (8 h p.i.) was 25.5 ± 2.02 % IA/g, the “PC-3 flu Tumor” value (8 h p.i.) was 4.01 ± 0.79 % IA/g and the Salivary glands (8 h p.i.) was 4.45 ± 0.56 % IA/g. It also gave a Spleen (8 h p.i.) of 4.05 ± 0.69 % IA/g, a Stomach (8 h p.i.) of 2.45 ± 0.43 % IA/g and a Tumor-to-blood (8 h p.i.) of 1.22 ± 0.08. The Tumor-to-kidney (8 h p.i.) was 1.13 ± 0.07, the Tumor-to-liver (8 h p.i.) was 4.97 ± 1.21 and the Blood (24 h p.i.) was 14.2 ± 1.40 % IA/g. The Bone (24 h p.i.) was 1.58 ± 0.06 % IA/g, the Heart (24 h p.i.) was 5.93 ± 0.65 % IA/g and the Intestines (24 h p.i.) was 2.12 ± 0.20 % IA/g. The Kidneys (24 h p.i.) was 22.7 ± 2.18 % IA/g, the Liver (24 h p.i.) was 2.92 ± 0.67 % IA/g and the Lung (24 h p.i.) was 8.62 ± 1.47 % IA/g. For the same molecule, the Muscle (24 h p.i.) was 1.34 ± 0.14 % IA/g, the “PC-3 PIP Tumor” value (24 h p.i.) was 38.2 ± 2.59 % IA/g and the “PC-3 flu Tumor” value (24 h p.i.) was 3.95 ± 0.82 % IA/g. It also gave a Salivary glands (24 h p.i.) of 3.38 ± 0.32 % IA/g, a Spleen (24 h p.i.) of 3.60 ± 0.43 % IA/g and a Stomach (24 h p.i.) of 1.39 ± 0.07 % IA/g. It also gave a Tumor-to-blood (24 h p.i.) of 2.71 ± 0.39, a Tumor-to-kidney (24 h p.i.) of 1.69 ± 0.07 and a Tumor-to-liver (24 h p.i.) of 13.5 ± 2.79. For the same molecule, the Blood (48 h p.i.) was 12.0 ± 2.18 % IA/g, the Bone (48 h p.i.) was 1.64 ± 0.34 % IA/g and the Heart (48 h p.i.) was 4.42 ± 0.81 % IA/g. It also gave an Intestines (48 h p.i.) of 1.84 ± 0.54 % IA/g, a Kidneys (48 h p.i.) of 25.2 ± 4.15 % IA/g and a Liver (48 h p.i.) of 3.03 ± 0.63 % IA/g. The Lung (48 h p.i.) was 7.67 ± 0.83 % IA/g, the Muscle (48 h p.i.) was 1.35 ± 0.46 % IA/g and the “PC-3 PIP Tumor” value (48 h p.i.) was 65.6 ± 1.84 % IA/g. For the same molecule, the “PC-3 flu Tumor” value (48 h p.i.) was 4.64 ± 1.84 % IA/g, the Salivary glands (48 h p.i.) was 3.96 ± 0.98 % IA/g and the Spleen (48 h p.i.) was 4.62 ± 1.12 % IA/g. For the same molecule, the Stomach (48 h p.i.) was 1.49 ± 0.47 % IA/g, the Tumor-to-blood (48 h p.i.) was 5.54 ± 0.76 and the Tumor-to-kidney (48 h p.i.) was 2.64 ± 0.40. It also gave a Tumor-to-liver (48 h p.i.) of 22.2 ± 4.11, a Blood (96 h p.i.) of 6.68 ± 0.85 % IA/g and a Bone (96 h p.i.) of 1.07 ± 0.22 % IA/g. The Heart (96 h p.i.) was 2.70 ± 0.37 % IA/g, the Intestines (96 h p.i.) was 1.05 ± 0.17 % IA/g and the Kidneys (96 h p.i.) was 13.0 ± 1.30 % IA/g. It also gave a Liver (96 h p.i.) of 1.88 ± 0.36 % IA/g, a Lung (96 h p.i.) of 5.07 ± 0.66 % IA/g and a Muscle (96 h p.i.) of 0.82 ± 0.12 % IA/g. The “PC-3 PIP Tumor” value (96 h p.i.) was 62.3 ± 3.56 % IA/g, the “PC-3 flu Tumor” value (96 h p.i.) was 2.76 ± 0.23 % IA/g and the Salivary glands (96 h p.i.) was 2.22 ± 0.38 % IA/g. The Spleen (96 h p.i.) was 3.12 ± .015 % IA/g, the Stomach (96 h p.i.) was 0.81 ± 0.04 % IA/g and the Tumor-to-blood (96 h p.i.) was 9.39 ± 0.65. The Tumor-to-kidney (96 h p.i.) was 4.80 ± 0.20, the Tumor-to-liver (96 h p.i.) was 33.7 ± 4.33 and the Blood (144 h p.i.) was 5.78 ± 0.90 % IA/g. The Bone (144 h p.i.) was 0.99 ± 0.20 % IA/g, the Heart (144 h p.i.) was 2.23 ± 0.29 % IA/g and the Intestines (144 h p.i.) was 1.07 ± 0.13 % IA/g. The Kidneys (144 h p.i.) was 10.2 ± 3.41 % IA/g, the Liver (144 h p.i.) was 1.56 ± 0.16 % IA/g and the Lung (144 h p.i.) was 4.90 ± 0.58 % IA/g. The Muscle (144 h p.i.) was 0.66 ± 0.15 % IA/g, the “PC-3 PIP Tumor” value (144 h p.i.) was 78.4 ± 8.57 % IA/g and the “PC-3 flu Tumor” value (144 h p.i.) was 2.82 ± 0.24 % IA/g. The Salivary glands (144 h p.i.) was 1.68 ± 0.53 % IA/g, the Spleen (144 h p.i.) was 4.32 ± 0.57 % IA/g and the Stomach (144 h p.i.) was 0.84 ± 0.13 % IA/g. For the same molecule, the Tumor-to-blood (144 h p.i.) was 13.8 ± 2.38, the Tumor-to-kidney (144 h p.i.) was 8.05 ± 1.77 and the Tumor-to-liver (144 h p.i.) was 50.5 ± 6.28. For the same molecule, the Blood (192 h p.i.) was 5.21 ± 1.37 % IA/g, the Bone (192 h p.i.) was 0.86 ± 0.17 % IA/g and the Heart (192 h p.i.) was 2.12 ± 0.68 % IA/g. It also gave an Intestines (192 h p.i.) of 1.02 ± 0.25 % IA/g, a Kidneys (192 h p.i.) of 7.56 ± 1.44 % IA/g and a Liver (192 h p.i.) of 1.51 ± 0.37 % IA/g. The Lung (192 h p.i.) was 4.12 ± 0.96 % IA/g, the Muscle (192 h p.i.) was 0.64 ± 0.13 % IA/g and the “PC-3 PIP Tumor” value (192 h p.i.) was 75.6 ± 22.0 % IA/g. The “PC-3 flu Tumor” value (192 h p.i.) was 2.73 ± 0.84 % IA/g, the Salivary glands (192 h p.i.) was 1.78 ± 0.34 % IA/g and the Spleen (192 h p.i.) was 4.09 ± 1.12 % IA/g. The Stomach (192 h p.i.) was 0.73 ± 0.12 % IA/g, the Tumor-to-blood (192 h p.i.) was 14.5 ± 1.84 and the Tumor-to-kidney (192 h p.i.) was 9.87 ± 1.05. The Tumor-to-liver (192 h p.i.) was 50.2 ± 7.38.

Source: patent US11629201B2, “PSMA-binding agents and uses thereof” (ITM Isotope Technologies Munich SE, priority 2017, dated 2023)
